Laboratory results published in ChEMBL document CHEMBL1201862, “PubChem BioAssay data set” (2004).
Calls of active or inactive are those of the source.

What was measured:
[1] = biological target: Alkaline phosphatase, placental type (Homo sapiens, UniProt P05187); experiment: PLAP enzyme inhibitors, confirmation, biochemical, luminescence (AID 1512); assay type: functional
[2] = Luminescence Cell-Based Dose Response HTS to Identify Inhibitors of 5'UTR Stem-Loop Driven Prion Protein mRNA Translation in H4 Neuroglioblastoma Cells. [Related pubchem assays: 1827 (Project Summary), 1813 (Primary HTS)]; assay type: functional
[3] = Luminescence Cell-Based Dose Confirmation HTS to Identify Inhibitors of Platelet Dense Granule Release. [Related pubchem assays: 1663 (Primary HTS), 1678 (Summary of Project)]; assay type: functional
[4] = inhibitors of SNCA 5'UTR-driven reporter translation, confirmation, H4 neuroglioma cells, luminescence (AID 1988); assay type: functional, cell-based
[5] = biological target: Luciferin 4-monooxygenase (Photinus pyralis, UniProt P08659); experiment: firefly luciferase enzyme inhibitors, dose response, biochemical, luminescence (AID 1891)
[6] = inhibitors of firefly luciferase expression or activity, dose response, H4 neuroglioma cells, luminescence (AID 1990); assay type: functional, cell-based
[7] = biological target: Oxysterols receptor LXR-beta (Homo sapiens, UniProt P55055); assay type: functional, cell-based;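 further: Cell-based luminescence dose-response assay of agonist activity at LXR, run as a confirmatory counterscreen to a daf-12 agonist screen; HEK293 cells with Gal4-LXR fusion and GAL4-driven luciferase reporter; agonist potency from rising luciferase signal of a Gal4-LXR reporter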
[8] = inhibitors of intracellular T. cruzi replication, confirmation, NIH3T3 host cells, beta-gal luminescence (AID 2044); assay type: functional, cell-based;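 further: intracellular parasites grown in NIH/3T3 mouse fibroblasts as host cells; luminescent beta-galactosidase reporter signal from transgenic T. cruzi replicating inside host cells; inhibitors lower the luminescence signal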
[9] = biological target: T1, Alkaline phosphatase, tissue-nonspecific isozyme (Homo sapiens, UniProt P05186); experiment: human TNAP enzyme inhibitors, SAR follow-up, biochemical, luminescent, dose response (AID 1056)
T1 sequence (P05186 whole entry): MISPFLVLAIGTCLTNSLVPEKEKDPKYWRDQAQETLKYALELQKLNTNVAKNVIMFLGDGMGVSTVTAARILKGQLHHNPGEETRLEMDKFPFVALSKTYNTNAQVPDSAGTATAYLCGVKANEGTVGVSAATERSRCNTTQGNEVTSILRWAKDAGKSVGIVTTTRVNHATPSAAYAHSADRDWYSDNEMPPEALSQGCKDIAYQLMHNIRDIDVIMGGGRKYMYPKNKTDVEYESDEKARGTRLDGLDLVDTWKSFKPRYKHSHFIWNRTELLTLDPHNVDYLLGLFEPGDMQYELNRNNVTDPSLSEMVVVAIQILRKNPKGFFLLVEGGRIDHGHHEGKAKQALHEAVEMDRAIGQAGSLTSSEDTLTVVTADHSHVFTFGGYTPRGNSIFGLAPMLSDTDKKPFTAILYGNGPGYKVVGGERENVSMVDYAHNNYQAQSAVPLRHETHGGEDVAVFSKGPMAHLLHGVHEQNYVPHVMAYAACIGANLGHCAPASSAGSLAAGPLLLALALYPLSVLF

[10] = biological target: Bifunctional protein GlmU (Mycobacterium tuberculosis, UniProt P9WMN3); experiment: Inhibitors of Mycobacterial Glucosamine-1-phosphate acetyl transferase (GlmU). Secondary screen.; set-up: species or system Mycobacterium tuberculosis H37Rv
[11] = HIV Env cell-cell fusion inhibitors, dose response, HIV entry, plate reader, dry powder (AID 687023); assay type: functional, cell-based
BJ [12] = experiment: cytotoxicity toward BJ-TERT-LT-ST fibroblasts, dose response, cell-based, RAS-independent, luminescence (AID 1935); assay type: functional; details: Homo sapiens;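 further: BJ fibroblasts immortalized with TERT plus LT and ST oncogenes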
[13] = HeLa 4N DNA content increase, dose response, cell-based, IC50 (AID 1117351); assay type: functional
[14] = SNU-C1 cell viability reduction, dose response, CellTiter-Glo luminescence (AID 1117323); assay type: functional, cell-based
BJ [15] = experiment: cytotoxicity toward BJ-TERT fibroblasts, dose response, cell-based, RAS-independent, luminescence (AID 1933); assay type: functional; details: Homo sapiens
[16] = cytotoxicity toward Colo320 cells – cell-based, CellTiter-Glo luminescence, IC50, dose response (AID 1117334); assay type: functional; details: COLO 320
[17] = RKO cell viability reduction, dose response, CellTiter-Glo luminescence (AID 1117322); assay type: functional
[18] = Concentration-dependent survival of SW480 colon cancer line, luminescence detection with CellTiter-Glo, half-maximal inhibitory concentration (AID 1117338); assay type: functional
[19] = CellTiter-Glo luminescent dose response of DLD-1 viability loss (AID 1117352); assay type: functional
BJ [20] = experiment: cells; assay type: functional, cell-based; details: Homo sapiens
[21] = cytotoxicity toward HCT116 cells – cell-based, CellTiter-Glo luminescence, IC50, dose response (AID 1117332); assay type: functional; details: HCT-116
[22] = cytotoxicity toward HT-29 cells – cell-based, CellTiter-Glo luminescence, IC50, dose response (AID 1117330); assay type: functional
[23] = cytotoxicity toward DRD oncogenic fibroblasts, dose response, cell-based, non-viral oncogenic, luminescence (AID 1934); assay type: functional; details: Homo sapiens
[24] = HeLa 2N DNA content increase, dose response, cell-based, IC50 (AID 1117349); assay type: functional
[25] = HCT116 cell viability decrease, GSK3B pretreatment – CellTiter-Glo, IC50, dose response (AID 1117339); assay type: functional; details: HCT-116
BJ [26] = experiment: cytotoxicity toward Ras-transformed BJeLR fibroblasts, dose response, cell-based, alamar blue fluorescence, cherrypicked samples (AID 2631); assay type: functional; details: Homo sapiens;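 further: confirmatory dose-response assay in RAS-dependent BJ fibroblasts engineered with TERT, LT and ST, with cytotoxicity read by fluorescence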
[27] = biological target: Peroxisome proliferator-activated receptor gamma/Nuclear receptor coactivator 3 (Homo sapiens, UniProt P37231); experiment: TR-FRET dose response biochemical High Throughput Screening assay for agonists of the steroid receptor coactivator 3 (SRC-3) recruitment by the peroxisome proliferator-activated receptor gamma (PPAR gamma): non-selective agonists. [Related pubchem assays: 1301 (Confirmation screen.), 1048 (Primary screen.)]; assay type: functional
Fibrinogen beta chain [28] = biological target: T2, Fibrinogen beta chain (Homo sapiens, UniProt P02675); experiment: Fluorescence polarization-based biochemical high throughput dose response assay to identify inhibitors that disrupt the binding of a cyclic peptide (Tn6) to the fibrin proteolytic product D-Dimer and fragment E complex [DD(E )].
[29] = biological target: Peroxisome proliferator-activated receptor gamma/Nuclear receptor coactivator 2 (Homo sapiens, UniProt P37231); experiment: (§1) TR-FRET dose response biochemical High Throughput Screening assay for agonists of the steroid receptor coactivator 2 (SRC-2) recruitment by the peroxisome proliferator-activated receptor gamma (PPAR gamma): non-selective agonists. [Related pubchem assays: 1297, 1032 ]; assay type: functional
[30] = biological target: T3, Polyadenylate-binding protein 1 (Homo sapiens, UniProt P11940); experiment: PABP1 MLLE–PAM2 interaction inhibitors, dose response, miRNA deadenylation inhibitor project, biochemical, fluorescence polarization, Cy5-PAM2 peptide, secondary (AID 602260); assay type: functional; details: read-out: IC50_Mean
[31] = biological target: Peroxisome proliferator-activated receptor gamma/Nuclear receptor coactivator 1 (Homo sapiens, UniProt P37231); experiment: as §1, with “1 (SRC-1)” for “2 (SRC-2)”, “assays (depositor defined):AID1300, AID1808, AID504735, AID631]” for “assays: 1297, 1032 ]”; assay type: protein assay
Fibrinogen beta chain [32] = biological target: T2, Fibrinogen beta chain; experiment: Fluorescence polarization-based biochemical high throughput dose response assay to identify inhibitors that disrupt the binding of a cyclic peptide (Tn7) to the fibrin proteolytic product D-Dimer and fragment E complex [DD(E )].
[33] = biological target: T3, Polyadenylate-binding protein 1; experiment: PABP1 MLLE–PAM2 binding inhibitor potency, dose response, biochemical, fluorescence polarization, FITC-PAM2 peptide (AID 602259); assay type: functional; details: read-out: IC50_Mean
[34] = biological target: T4, Low molecular weight phosphotyrosine protein phosphatase (Homo sapiens, UniProt P24666); experiment: LMPTP phosphatase inhibitors, dose response, biochemical, OMFP substrate, fluorescence intensity, set 2 (AID 743307); assay type: functional
T4 sequence (P24666 whole entry): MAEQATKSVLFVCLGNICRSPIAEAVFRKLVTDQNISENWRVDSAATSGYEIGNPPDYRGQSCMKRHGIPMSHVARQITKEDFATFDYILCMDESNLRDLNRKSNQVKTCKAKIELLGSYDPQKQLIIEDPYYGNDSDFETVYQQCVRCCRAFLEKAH

[35] = biological target: T4, Low molecular weight phosphotyrosine protein phosphatase; experiment: LMPTP phosphatase inhibitors, colorimetric pNPP readout, dose response, orthogonal assay, biochemical, absorbance, pNPP substrate, LMPTP-A isoform, set 2 (AID 743308); assay type: functional
[36] = biological target: Eukaryotic translation initiation factor 4E (Mus musculus, UniProt P63073); experiment: eIF4E–eIF4G protein interaction inhibitors, dose response, biochemical, TR-FRET (AID 855); assay type: functional;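 further: potency for disrupting eIF4E binding to eIF4GI seen as loss of FRET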
[37] = biological target: Glutathione-S-transferase (Schistosoma japonicum, UniProt Q26513); experiment: biotin-GST/anti-GST TR-FRET signal inhibitors, dose response, artefact control for Vif-APOBEC3G degradation inhibitor project, biochemical (AID 1117362); assay type: functional
[38] = Glucagon-like peptide 1 release potency, NCI-H716 cell line, dose-response, half-maximal inhibitory concentration (AID 1117344); assay type: functional, cell-based
[39] = half-maximal inhibitory concentration for glucagon-like peptide-1 release, STC-1 cell line, dose-response (AID 1117345); assay type: functional, cell-based

T3 sequence (P11940 whole entry): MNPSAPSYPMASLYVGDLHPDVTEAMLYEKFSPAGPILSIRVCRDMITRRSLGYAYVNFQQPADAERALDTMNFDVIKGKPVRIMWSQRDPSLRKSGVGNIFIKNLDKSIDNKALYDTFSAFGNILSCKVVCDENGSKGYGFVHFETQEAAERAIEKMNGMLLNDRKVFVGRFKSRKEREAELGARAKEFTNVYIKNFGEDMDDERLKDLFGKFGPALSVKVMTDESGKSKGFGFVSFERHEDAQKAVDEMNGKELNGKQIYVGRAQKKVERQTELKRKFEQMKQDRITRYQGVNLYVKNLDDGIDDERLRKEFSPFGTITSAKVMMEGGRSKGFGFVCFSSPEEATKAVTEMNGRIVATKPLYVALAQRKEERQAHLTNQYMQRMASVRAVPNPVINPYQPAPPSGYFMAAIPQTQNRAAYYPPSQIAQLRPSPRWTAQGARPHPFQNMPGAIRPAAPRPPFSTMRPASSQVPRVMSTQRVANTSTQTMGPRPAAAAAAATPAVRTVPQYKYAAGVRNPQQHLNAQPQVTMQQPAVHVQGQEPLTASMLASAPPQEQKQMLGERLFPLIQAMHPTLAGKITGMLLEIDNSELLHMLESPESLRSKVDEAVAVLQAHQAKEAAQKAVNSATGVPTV
T2 sequence (P02675 whole entry, the tested form may be a part): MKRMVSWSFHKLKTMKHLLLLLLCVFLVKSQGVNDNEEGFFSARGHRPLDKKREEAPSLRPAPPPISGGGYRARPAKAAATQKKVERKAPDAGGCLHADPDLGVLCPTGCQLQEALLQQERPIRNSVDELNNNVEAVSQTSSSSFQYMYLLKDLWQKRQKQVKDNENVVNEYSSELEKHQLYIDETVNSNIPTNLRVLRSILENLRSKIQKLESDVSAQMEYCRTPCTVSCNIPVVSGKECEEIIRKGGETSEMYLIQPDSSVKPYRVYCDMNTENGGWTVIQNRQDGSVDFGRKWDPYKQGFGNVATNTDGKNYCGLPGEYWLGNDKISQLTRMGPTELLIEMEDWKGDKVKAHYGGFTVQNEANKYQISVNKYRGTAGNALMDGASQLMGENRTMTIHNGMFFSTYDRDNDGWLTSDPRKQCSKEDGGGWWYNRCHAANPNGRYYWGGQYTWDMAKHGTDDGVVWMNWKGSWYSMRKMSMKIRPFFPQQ
Luciferin 4-monooxygenase, sequence (P08659 whole entry): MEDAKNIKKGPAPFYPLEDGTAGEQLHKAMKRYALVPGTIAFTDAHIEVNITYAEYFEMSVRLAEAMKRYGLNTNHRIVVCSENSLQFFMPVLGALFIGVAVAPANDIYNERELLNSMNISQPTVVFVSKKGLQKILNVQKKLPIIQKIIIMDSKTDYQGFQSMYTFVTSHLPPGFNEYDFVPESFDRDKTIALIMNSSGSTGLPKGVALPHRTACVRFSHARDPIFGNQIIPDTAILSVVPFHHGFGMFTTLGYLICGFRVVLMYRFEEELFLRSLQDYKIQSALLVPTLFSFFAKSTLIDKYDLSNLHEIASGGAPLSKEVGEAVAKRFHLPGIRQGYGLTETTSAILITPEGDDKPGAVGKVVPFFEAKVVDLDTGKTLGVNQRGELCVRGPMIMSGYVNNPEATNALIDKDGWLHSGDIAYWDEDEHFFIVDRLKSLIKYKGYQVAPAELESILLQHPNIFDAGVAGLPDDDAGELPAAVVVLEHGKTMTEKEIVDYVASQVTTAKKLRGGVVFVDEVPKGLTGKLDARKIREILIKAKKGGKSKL
Eukaryotic translation initiation factor 4E, sequence (P63073 whole entry): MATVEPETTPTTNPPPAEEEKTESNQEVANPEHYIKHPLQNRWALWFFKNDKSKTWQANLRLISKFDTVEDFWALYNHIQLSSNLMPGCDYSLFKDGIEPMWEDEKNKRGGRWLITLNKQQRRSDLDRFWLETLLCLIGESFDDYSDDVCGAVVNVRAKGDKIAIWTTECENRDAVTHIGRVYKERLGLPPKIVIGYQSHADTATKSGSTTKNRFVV
Bifunctional protein GlmU, sequence (P9WMN3 whole entry, the tested form may be a part): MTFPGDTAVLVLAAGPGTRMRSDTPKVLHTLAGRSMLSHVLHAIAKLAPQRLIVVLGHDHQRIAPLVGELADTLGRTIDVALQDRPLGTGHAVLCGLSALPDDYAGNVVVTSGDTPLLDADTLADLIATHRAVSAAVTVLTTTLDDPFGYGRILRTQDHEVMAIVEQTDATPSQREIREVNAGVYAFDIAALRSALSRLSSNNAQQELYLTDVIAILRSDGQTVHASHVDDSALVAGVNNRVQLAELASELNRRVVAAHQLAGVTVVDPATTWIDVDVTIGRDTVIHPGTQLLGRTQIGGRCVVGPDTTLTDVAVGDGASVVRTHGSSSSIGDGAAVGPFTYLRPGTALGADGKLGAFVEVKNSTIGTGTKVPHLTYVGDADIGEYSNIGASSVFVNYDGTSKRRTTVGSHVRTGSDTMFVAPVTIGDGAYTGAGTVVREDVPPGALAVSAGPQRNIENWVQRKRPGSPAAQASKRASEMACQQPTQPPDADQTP
Peroxisome proliferator-activated receptor gamma/Nuclear receptor coactivator 2, sequence (P37231 whole entry): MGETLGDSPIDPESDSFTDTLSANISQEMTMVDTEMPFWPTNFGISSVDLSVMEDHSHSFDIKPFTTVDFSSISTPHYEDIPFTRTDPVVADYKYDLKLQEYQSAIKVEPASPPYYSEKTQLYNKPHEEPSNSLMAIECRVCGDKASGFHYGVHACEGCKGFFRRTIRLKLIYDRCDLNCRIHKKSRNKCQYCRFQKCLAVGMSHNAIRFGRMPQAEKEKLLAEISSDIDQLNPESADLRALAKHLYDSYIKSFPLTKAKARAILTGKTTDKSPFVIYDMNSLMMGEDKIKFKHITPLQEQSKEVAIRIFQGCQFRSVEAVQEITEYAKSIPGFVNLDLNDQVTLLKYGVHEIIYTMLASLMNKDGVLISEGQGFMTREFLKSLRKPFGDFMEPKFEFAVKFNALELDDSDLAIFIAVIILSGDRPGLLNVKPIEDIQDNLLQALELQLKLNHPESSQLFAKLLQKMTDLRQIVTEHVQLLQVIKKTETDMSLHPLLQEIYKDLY
Peroxisome proliferator-activated receptor gamma/Nuclear receptor coactivator 2, sequence (Q15596 whole entry, further chain): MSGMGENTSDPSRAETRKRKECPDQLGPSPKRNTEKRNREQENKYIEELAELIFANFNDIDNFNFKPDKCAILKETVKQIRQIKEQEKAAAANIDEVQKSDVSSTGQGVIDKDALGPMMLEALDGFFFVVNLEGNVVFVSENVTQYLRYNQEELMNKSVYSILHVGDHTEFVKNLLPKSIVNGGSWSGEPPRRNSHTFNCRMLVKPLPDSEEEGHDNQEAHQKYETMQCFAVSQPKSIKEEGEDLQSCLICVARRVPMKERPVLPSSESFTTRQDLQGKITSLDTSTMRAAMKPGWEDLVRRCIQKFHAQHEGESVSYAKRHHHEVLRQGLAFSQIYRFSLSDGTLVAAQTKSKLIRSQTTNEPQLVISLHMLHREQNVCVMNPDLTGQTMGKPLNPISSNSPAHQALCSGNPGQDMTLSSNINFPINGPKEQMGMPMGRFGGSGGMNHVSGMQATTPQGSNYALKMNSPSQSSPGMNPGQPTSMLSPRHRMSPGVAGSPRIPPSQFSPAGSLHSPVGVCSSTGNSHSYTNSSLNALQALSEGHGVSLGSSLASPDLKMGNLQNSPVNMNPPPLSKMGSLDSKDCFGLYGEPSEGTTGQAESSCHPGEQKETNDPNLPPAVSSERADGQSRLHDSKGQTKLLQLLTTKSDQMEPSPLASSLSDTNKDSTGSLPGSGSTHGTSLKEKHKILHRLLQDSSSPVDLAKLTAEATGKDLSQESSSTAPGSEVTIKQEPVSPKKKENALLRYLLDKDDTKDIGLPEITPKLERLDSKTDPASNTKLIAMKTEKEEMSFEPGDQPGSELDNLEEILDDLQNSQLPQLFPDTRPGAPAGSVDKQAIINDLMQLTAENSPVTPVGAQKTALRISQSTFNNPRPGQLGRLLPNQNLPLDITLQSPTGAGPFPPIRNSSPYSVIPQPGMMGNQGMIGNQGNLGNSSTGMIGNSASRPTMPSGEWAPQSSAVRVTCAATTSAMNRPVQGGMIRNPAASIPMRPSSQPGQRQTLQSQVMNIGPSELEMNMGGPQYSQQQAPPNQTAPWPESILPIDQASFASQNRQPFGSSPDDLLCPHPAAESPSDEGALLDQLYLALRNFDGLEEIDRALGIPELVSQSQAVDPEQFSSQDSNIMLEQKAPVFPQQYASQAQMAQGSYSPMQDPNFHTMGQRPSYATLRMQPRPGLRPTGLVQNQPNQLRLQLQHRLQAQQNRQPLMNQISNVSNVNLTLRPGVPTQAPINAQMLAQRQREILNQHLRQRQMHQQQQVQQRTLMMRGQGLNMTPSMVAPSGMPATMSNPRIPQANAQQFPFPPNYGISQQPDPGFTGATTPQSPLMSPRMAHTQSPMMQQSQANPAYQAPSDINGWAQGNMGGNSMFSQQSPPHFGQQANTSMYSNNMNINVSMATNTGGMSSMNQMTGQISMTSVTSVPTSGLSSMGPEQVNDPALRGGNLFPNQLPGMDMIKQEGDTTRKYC
Oxysterols receptor LXR-beta, sequence (P55055 whole entry, the tested form may be a part): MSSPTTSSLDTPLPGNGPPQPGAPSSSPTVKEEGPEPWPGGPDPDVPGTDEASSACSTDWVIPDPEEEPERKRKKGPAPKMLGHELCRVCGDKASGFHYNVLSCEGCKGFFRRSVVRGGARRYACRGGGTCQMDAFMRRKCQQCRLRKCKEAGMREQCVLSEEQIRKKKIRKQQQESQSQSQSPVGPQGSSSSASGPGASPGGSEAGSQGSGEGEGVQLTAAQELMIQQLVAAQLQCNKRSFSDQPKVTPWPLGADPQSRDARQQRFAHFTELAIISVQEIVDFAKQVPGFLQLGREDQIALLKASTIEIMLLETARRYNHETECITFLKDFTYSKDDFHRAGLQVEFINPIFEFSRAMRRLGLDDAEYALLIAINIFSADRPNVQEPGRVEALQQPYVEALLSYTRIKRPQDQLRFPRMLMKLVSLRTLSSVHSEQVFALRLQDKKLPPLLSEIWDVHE

Compound: Clc1ccc(/C=C/c2nc3ccccc3[nH]2)c(Cl)c1
- EC50 (cells): > 67.5 µM (inactive)
- IC50 [1]: 2.85 µM (active)
- EC50 [2]: 7.08 µM (active)
- EC50 [3]: 8.31 µM (active)
- EC50 [4]: 2.85 µM (inconclusive)
- EC50 [5]: 0.519 µM (active)
- EC50 [6]: 0.55 µM (active)
- EC50 [7]: > 67.5 µM (inactive)
- EC50 [8]: 3.15 µM (active)
- IC50 [9]: 5.78 µM (active)

Compound: O=S1(=O)c2ccccc2N=NN1Cc1ccc(Cl)c(Cl)c1
- IC50 [10]: 38.7 µM (active)

Compound: Cc1noc(C)c1S(=O)(=O)Nc1cccc2c1O[C@H](CN(C)Cc1ccc(C(F)(F)F)cc1)[C@@H](C)CN([C@@H](C)CO)C2=O
- AC50 [11]: > 70 µM (inactive)

Compound: COCc1c(C(C)C)nc(C(C)C)c(/C=C/[C@@H](O)C[C@@H](O)CC(=O)O)c1-c1ccc(F)cc1 [CERIVASTATIN SODIUM]
- EC50 (BJ [12]): 0.356 µM (inconclusive)
- IC50 [13]: > 10 µM (inactive)
- IC50 [14]: 1.87 µM (active)
- EC50 (BJ [15]): 0.339 µM (inconclusive)
- IC50 [16]: 1.92 µM (active)
- IC50 [17]: 1.01 µM (active)
- IC50 [18]: 0.143 µM (active)
- IC50 [19]: 2.51 µM (active)
- EC50 (BJ [20]): 0.347 µM (inconclusive)
- IC50 [21]: 0.24 µM (active)
- IC50 [22]: 1.21 µM (active)
- EC50 [23]: 0.338 µM (inconclusive)
- IC50 [24]: > 10 µM (inactive)
- IC50 [25]: 0.0529 µM (active)
- EC50 (BJ [26]): < 0.104 µM (active)

Compound: Cc1cc2cc(CNC(=O)c3ccc(S(=O)(=O)N4CCOCC4)cc3)ccc2n1C
- EC50 [27]: 15.7 µM (not active)
- IC50 (Fibrinogen beta chain [28]): 10.6 µM (inactive)
- EC50 [29]: 6.71 µM (active)
- IC50 [30]: > 66 µM (inactive)
- EC50 [31]: 6.78 µM (active)
- IC50 (Fibrinogen beta chain [32]): > 83.3 µM (inactive)
- IC50 [33]: 49.6 µM (inactive)

Compound: Cc1ccc(-c2cc(NCCCN3CCCCC3)c3ccccc3n2)cc1
- IC50 [34]: 1.34 µM (active)
- IC50 [35]: 2.99 µM (active)

Compound: CN(C)[C@@H]1C(=O)C(C(=O)NCN2CCCC2)=C(O)[C@@]2(O)C(O)=C3C(=O)c4c(O)cccc4[C@@](C)(O)C3CC12 (stereo not given in full)
- IC50 [36]: 12.3 µM (active)
- IC50 [37]: > 100 µM (active)

Compound: c1ccc2ccccc2c1
- IC50 [38]: 20.8 µM (inactive)
- IC50 [39]: > 40 µM (inactive)
